Assay results taken from patent US20090281065A1, “Use of Lysophospholipids to Treat Inflammation” (priority 2008, published 2009).
Marks after values point to notes of the source that are not given here.

Legend:
[1] = design: species or system Cobb 400 broiler chickens; conditions: in vivo
[2] = design: species or system Cobb 400 broiler chickens; conditions: in vivo; remark: listed apart in the source
HepG2/NFκB-Luc cells = experiment: Cytotoxicity test (AlamarBlue reduction rate); type: cell-based; conditions: 2 mg/ml (~3636 μM) LPC content; 4 hours; FIG. 8
Protocol: An overnight culture of HepG2/NFκB-Luc cells were trypsinized and transferred to 96-well microtiter plate, with 1.5×10^4 cells/well. The 96-well microtiter plates were incubated for 24 hours at 37° C. with 5% CO2. Then different concentrations of LPC samples were added into plate wells together with AlamarBlue. The cells were incubated for 4 hours at 37° C. with 5% CO2 before the OD570 and OD600 readings were measured. Culture medium with no LPC added was used as a control. The cytotoxicity was reflected by the amount of AlamarBlue being reduced (reduction rate (RR)) as determined by the following formula:
RR %={[(εoxλ2)(Aλ1)−(εoxλ1)(Aλ2)]}/{[(εredλ1)(A′λ2)−(εredλ2)(A′λ1)]}×100%
where, εredλ1=155677 (absorption coefficient of reduced AlamarBlue at 570 nm) • Εredλ2=14652 (absorption coefficient of reduced AlamarBlue at 600 nm) • εoxλ1=80586 (absorption coefficient of oxidized AlamarBlue at 570 nm) • εoxλ2=117216 (absorption coefficient of oxidized AlamarBlue at 600 nm) • A′λ1=OD570 of the blank control (wells with AlamarBlue but no cells) • A′λ2=OD600 of the blank control (wells with AlamarBlue but no cells).

NFκB = experiment: Inflammation test without TNF-α (NFκB luciferase reporter); type: cell-based; conditions: FIG. 9
Protocol: An overnight culture of HepG2/NFκB-Luc cells were trypsinized and transferred to 96-well microtiter plate, with 1.5×10^4 cells/well. […] After incubation, the supernatant was removed, and 100 μl of luciferase substrate was added into each well and incubated for 5 minutes. Then 80 μl of the solution was transferred to a clean microtiter plate to determine the florescence unit by Steady-Glo® Luciferase Assay System. The LPC-treated cells without substrate added were used as control.

IL6 = experiment: Plasma cytokine ELISA in TNBS colitis rats: IL6; conditions: Example 3; oral day 4-10: PB6 1.5 108 CFU/Kg thrice daily; Lysophospholipid 10.3 mg/Kg 2 times daily; combination 25.75 mg/ml 2 times daily; Mesacol 250 mg/Kg once daily
IL1-β = experiment: Plasma cytokine ELISA in TNBS colitis rats: IL1-β
TNBS induced colitis [3] = experiment: TNBS induced colitis in rats: colon wet weight and macroscopic colon score; conditions: for Colon Score / Colon wet weight (g): day 11
TNF-α = experiment: Plasma cytokine ELISA in TNBS colitis rats: TNF-α
TNBS induced colitis [4] = tested on: TNBS induced colitis
TGF-β = experiment: Plasma cytokine ELISA in TNBS colitis rats: TGF-β
IFN-γ = experiment: Plasma cytokine ELISA in TNBS colitis rats: IFN-γ
IL10 = experiment: Plasma cytokine ELISA in TNBS colitis rats: IL10
[5] = Example 3, oral day 4-10: PB6 1.5 108 CFU/Kg thrice daily, Lysophospholipid 10.3 mg/Kg 2 times daily, combination 25.75 mg/ml 2 times daily, Mesacol 250 mg/Kg once daily
[6] = Example 4, Lysoprin + Marinol + lutein at 21.5 mg/kg orally thrice daily day 4-10, Mesacol 250 mg/Kg orally once daily

In the case of CCC(=O)[O-].CCC(=O)[O-].CCC(=O)[O-].[Cr+3] [Treatment 3, chromium propionate], the FCR [1] is reported as “A similar trend”, the weight gain [1] is reported as “A similar trend” and the “relative weight of the thymus” value [2] is reported as “higher”.
For lysophosphatidylcholine [pure LPC], the “cytotoxicity (AlamarBlue reduction rate)” value (HepG2/NFκB-Luc cells) was “Certain inhibition”, the “inflammation activity (luciferase activity), without TNF-α, highest concentration” value (NFκB; 50 μM of LPC, compared to the mock treatment) was “no statistical difference” and the “inflammation activity (luciferase activity), without TNF-α” value (NFκB; 5, 15 and 50 μM LPC content, 6 hours) was “inflammatory effect at all the three concentrations tested”.
For Nc1ccc(O)c(C(=O)O)c1 [Mesacol, 5-aminosalicylic acid], the “IL6 level in Plasma Day 11” value (IL6) was 127.4^a picogram/ml, the “IL1-β level in Plasma Day 7” value (IL1-β; [5]) was 881.52^b picogram/ml and the “IL1-β level in Plasma Day 11” value (IL1-β; [5]) was 848.33^bc picogram/ml. For the same compound, the “IL1-β level in Plasma Day 7” value (IL1-β; [6]) was 567±^a picogram/ml, the “IL1-β level in Plasma Day 11” value (IL1-β; [6]) was 685±^bc picogram/ml and the “macroscopic examination of the colonic tissue” value (TNBS induced colitis [3]; Example 3, PB6 (Group 4), Lysophospholipid 10.3 mg/kg (Group 5), combination 21.63 mg/kg (Group 6), Mesacol (Group 7)) was “no lesions with any visible inflammation or injury in the colonic tissue”. For the same compound, the “Colon Score” value (TNBS induced colitis [3]; Example 3, macroscopic grade 0-5, oral day 4-10: PB6 1.5 108 CFU/Kg thrice daily, Lysophospholipids 10.3 mg/Kg 2 times daily, combination 25.75 mg/ml 2 times daily, Mesacol 250 mg/Kg once daily) was 0.833^a, the “Colon wet weight (g)” value (TNBS induced colitis [3]; Example 3, oral day 4-10: PB6 1.5 108 CFU/Kg thrice daily, Lysophospholipids 10.3 mg/Kg 2 times daily, combination 25.75 mg/ml 2 times daily, Mesacol 250 mg/Kg once daily) was 0.669^a g and the “Colon wet weight (g)” value (TNBS induced colitis [3]; Example 4, Lysoprin + Marinol + lutein at 21.5 mg/kg orally thrice daily day 4-10, Mesacol 250 mg/Kg orally once daily day 4-10) was 0.336^ab g. The “Colon Score” value (TNBS induced colitis [3]; Example 4, grade 0-5, Lysoprin + Marinol + lutein at 21.5 mg/kg orally thrice daily day 4-10, Mesacol 250 mg/Kg orally once daily day 4-10) was 1.000^a, the “macroscopic examination of the colonic tissue” value (TNBS induced colitis [3]; Example 4, low dose combination at 21.63 mg/kg (Group 4), Mesacol (Group 6, n=4/6)) was “signs of amelioration with reduced localized ulceration” and the “TNF-α level in Plasma Day 7” value (TNF-α; [5]) was 22.77^a picogram/ml. For the same compound, the “TNF-α level in Plasma Day 11” value (TNF-α; [5]) was 30.27^b picogram/ml, the “TNF-α level in Plasma Day 7” value (TNF-α; [6]) was 29±^ab picogram/ml and the “TNF-α level in Plasma Day 11” value (TNF-α; [6]) was 28±^a picogram/ml. The “% Body weight gain/loss Day 1-4” value (TNBS induced colitis [4]; Example 3, TNBS day 1, Day 1-4 is prior to treatment (treatment from day 4)) was −6.6%, the “% Body weight gain/loss Day 4-10” value (TNBS induced colitis [4]; Example 3, oral day 4-10: PB6 1.5 10^8 CFU/Kg thrice daily, Lysophospholipids 10.3 mg/Kg 2 times daily, combination 25.75 mg/ml 2 times daily, Mesacol 250 mg/Kg once daily) was −1.87% and the “mortalities due to severe weight loss” value (TNBS induced colitis [4]; Example 4, Mesacol 250 mg/kg group, n=6) was “two”. For the same compound, the “TGF-β level in Plasma Day 7” value (TGF-β; [5]) was 17535 ± 2261a picogram/ml, the “TGF-β level in Plasma Day 11” value (TGF-β; [5]) was 32542 ± 5294b picogram/ml and the “TGF level in Plasma Day 7” value (TGF-β; [6]) was 37^b picogram/ml. The “TGF level in Plasma Day 11” value (TGF-β; [6]) was 40^c picogram/ml, the “IFN-γ level in Plasma Day 7” value (IFN-γ; [5]) was 20.8^a picogram/ml and the “IFN-γ level in Plasma Day 11” value (IFN-γ; [5]) was 40.23^c picogram/ml. For the same compound, the “IFN-γ level in Plasma Day 7” value (IFN-γ; [6]) was 37^b picogram/ml, the “IFN-γ level in Plasma Day 11” value (IFN-γ; [6]) was 40^c picogram/ml and the “IL10 level in Plasma Day 7” value (IL10; [5]) was 217.9ab picogram/ml. The “IL10 level in Plasma Day 11” value (IL10; [5]) was 444c picogram/ml, the “IL10 level in Plasma Day 7” value (IL10; [6]) was 231^ab picogram/ml and the “IL10 level in Plasma Day 11” value (IL10; [6]) was 454^d picogram/ml.
For CC1=C[C@H](O)CC(C)(C)[C@H]1/C=C/C(C)=C/C=C/C(C)=C/C=C/C=C(C)/C=C/C=C(C)/C=C/C1=C(C)C[C@@H](O)CC1(C)C [Treatment 2, lutein], the “performance (feed intake, weight gain, FCR)” value [1] was “comparable to that of the control group”.
